Test results taken from US20240254489A1, “COMPOSITIONS AND METHODS OF TARGETING THE PAX6 SIGNALING PATHWAY TO REDUCE FORMATION OF AMYLOID BETA PLAQUES AND NEUROFIBRILLARY TANGLES” (The University of Hong Kong, priority 2021, published 2024).

Experiments:
C/EBPa = settings: cited from earlier work
Pax6 and c-Myb = experiment: RT-PCR and Western blot of amyloid β-induced Pax6 and c-Myb in cortical neurons; assay type: cell-based, mouse
Protocol: Human brain tissues or mouse cortical neurons were dissolved in ice-cold 1×RIPA buffer (Cell Signaling) with proteinase inhibitor cocktail (Sigma). Proteins were separated on NuPAGE Novex 4-12% Bis-Tris gels (Thermo Fisher Scientific) and transferred to nitrocellulose membranes. Membranes were probed with indicated primary antibodies. The blots were analysed and quantified by densitometry using ImageJ software (Version 1.52t, National Institutes of Health).
Total mRNA was prepared from cell cultures utilizing TRIzol reagent (Thermo Fisher Scientific). Semi-quantitative RT-PCR experiments were performed to examine RNA expression of target genes. Briefly, 2 μg of total RNA was reverse-transcribed using SuperScript First-Strand Synthesis System (Thermo Fisher Scientific). The first-strand cDNA was used as a template. β-actin was used as the normalisation control.
Primary cortical neurons were derived from embryonic day 14.5 (E14.5) C57BL/6 mice^31. The brains were dissociated from skulls, meninges removed and cortices isolated. Individual cells were dissociated by incubation with trypsin and DNase (Sigma). Cells were plated on poly-d-lysine (Sigma)-coated 24-well plates at a density of 1.5×10^6 cells/ml in Neurobasal medium (Thermo Fisher Scientific) supplemented with B-27 (Thermo Fisher Scientific), N-2 (Thermo Fisher Scientific), and glutamine (0.5 mM, Thermo Fisher Scientific). […]

Pax6 promoter = Pax6 promoter luciferase reporter assay in amyloid β-treated cortical neurons; assay type: cell-based, mouse; settings: co-treatment with amyloid β
Protocol: Cortical neurons were transfected with luciferase reporter constructs three days after plating. After amyloid β treatment, luciferase activity of a target gene was determined using the dual-luciferase reporter assay system (Promega) in a microplate luminometer. Luciferase activity was normalised against Renilla activity for the transfection efficiency using a pRL Renilla luciferase control reporter construct. Next, experiments were designed to investigate whether the upregulation of Pax6 and c-Myb is associated with an increase in transcriptional activation of their targets. Cortical neurons were transfected with a P6CON luciferase reporter construct, which contained three standard Pax6 binding sites^39 to measure Pax6 binding; a luciferase construct containing the Pax6 P1 promoter^40 to measure Pax6 promoter activation; or with a luciferase construct containing c-Myb binding sites to measure c-Myb binding. The same luciferase assays were then performed after amyloid β treatment.

cortical neurons = experiment: Neuronal survival assay of amyloid β neurotoxicity; assay type: cell-based, mouse; settings: co-treatment with amyloid β
Protocol: The survival assay of amyloid β neurotoxicity was performed as reported previously^33. At various time periods, neurons were lysed in a cell lysis buffer. Under light microscopy, the numbers of intact nuclei indicating living cells was quantified and expressed relative to the number of cells in the control group without amyloid β treatment.
The brains were dissociated from skulls, meninges removed and cortices isolated. Individual cells were dissociated by incubation with trypsin and DNase (Sigma). Cells were plated on poly-d-lysine (Sigma)-coated 24-well plates at a density of 1.5×10^6 cells/ml in Neurobasal medium (Thermo Fisher Scientific) supplemented with B-27 (Thermo Fisher Scientific), N-2 (Thermo Fisher Scientific), and glutamine (0.5 mM, Thermo Fisher Scientific). Three days after seeding, cultured cells were transfected with siRNAs (60 pmol/24-well) using Lipofactamine 2000 transfection reagent (Thermo Fisher Scientific). Twenty-four hours after transfection, cells were exposed to amyloid β1-42 (5 μM) for the indicated time periods and then processed for subsequent assays. SiRNAs from Santa Cruz are provided as pools consisting of three to five target-specific 19-25 nucleotides siRNAs designed to specifically knockdown the expression of mouse Pax6, c-Myb or E2F1. Silencer Select Pre-designed siRNAs were from Ambion, non-targeting siRNA was used as a negative control. […]

cdks 1, 2, 4 and 7 = settings: in vitro; cited from earlier work
5×FAD mice [1] = experiment: Morris water maze of palbociclib-treated 5×FAD mice; assay type: in vivo, mouse
Source text: (§1) FIG. 9A-9D show effects of palbociclib on 5×FAD mice model. FIGS. 9A and 9B is a series of immunofluorescent images showing expression of cell cycle marker (Cyclin D1) (9A) and Pax6 (9B). […] FIG. 9D is an image of an autoradiogram of a Western blot and the associated quantitative bar graph showing the relative expression of E2F-1, CDK6, c-Myb, APP, Iba1 and LC3B in palbociclib treatment group compared to controls. FIG. 9E is a series of images of brain tissue showing the relative Aβ deposits in palbociclib treated mouse brain tissue compared to controls. FIG. 9F is a series of images of liver, gallbladder and kidney in palbociclib treated mouse. FIGS. 9G-9J show the effect of palbociclib treatment on learning and memory ability of 5×FAD female mice in morris water maze. FIG. 9G is a schematic diagram of palbociclib administration with 60 mg/(kg*d); 10-month-old wild-type mice (WT) and 5×FAD mice were administrated with solvent (ctrl) and 60 mg/kg/day palbociclib (palb) for 2 months via oral garage; Morris water maze with n(WT-ctrl)=5, n(5×FAD-ctrl)=5, n(5×FAD-palb)=3 were performed.
FIGS. 9G-9J show the effect of palbociclib treatment on learning and memory ability of 5×FAD female mice in morris water maze. FIG. 9G is a schematic diagram of palbociclib administration with 60 mg/(kg*d); 10-month-old wild-type mice (WT) and 5×FAD mice were administrated with solvent (ctrl) and 60 mg/kg/day palbociclib (palb) for 2 months via oral garage; Morris water maze with n(WT-ctrl)=5, n(5×FAD-ctrl)=5, n(5×FAD-palb)=3 were performed.

293T-APP cell line = experiment: Western blot of CDK4 and Cyclin D1 in 293T-APP cell line; assay type: cell-based; settings: 10 nM and 50 nM
Source text: (§2) Experiments were designed to test the effect of palbociclib on Tau in vitro and in vivo.

293T-Tau cell line = experiment: Western blot of CDK4 and Cyclin D1 in 293T-Tau cell line; assay type: cell-based; settings: 10 nM and 50 nM
Source text: as §2

[2] = Images of liver, gallbladder and kidney in palbociclib treated mouse; assay type: in vivo
Source text: as §1
FIGS. 9A-9D show effects of palbociclib on 5×FAD mice model. […] FIG. 9D is an image of an autoradiogram of a Western blot and the associated quantitative bar graph showing the relative expression of E2F-1, CDK6, c-Myb, APP, Iba1 and LC3B in palbociclib treatment group compared to controls. […]

5×FAD mice [3] = experiment: Immunofluorescence, Western blot and Aβ deposits in brain of palbociclib-treated 5×FAD mice; assay type: in vivo, mouse
Source text: as §1
FIGS. 8A-8E show the effects of palbociclib on 5×FAD mice models.
FIGS. 9A-9D show effects of palbociclib on 5×FAD mice model. FIGS. 9A and 9B is a series of immunofluorescent images showing expression of cell cycle marker (Cyclin D1) (9A) and Pax6 (9B). […] FIG. 9D is an image of an autoradiogram of a Western blot and the associated quantitative bar graph showing the relative expression of E2F-1, CDK6, c-Myb, APP, Iba1 and LC3B in palbociclib treatment group compared to controls. FIG. 9E is a series of images of brain tissue showing the relative […] deposits in palbociclib treated mouse brain tissue compared to controls.

[4] = 5×FAD female mice, 60 mg/kg/day oral 2 months

**Q.** Which “induction of C/EBPa” value (C/EBPa) does the source give for `COc1ccccc1-n1c(/C=C/c2ccc(O)c(O)c2)nc2ccccc2c1=O` [ICCB280] here?
**A.** The value was “potent inducer”.

**Q.** What does the source list for `CN1CC[C@H](c2c(O)cc(O)c3c(=O)cc(-c4ccccc4Cl)oc23)[C@H](O)C1` [flavopiridol]?
**A.** amyloid β-induced upregulation of Pax6 and c-Myb mRNA and protein (Pax6 and c-Myb): significantly blocked; amyloid β-induced activation of the Pax6 promoter (Pax6 promoter): blocked; amyloid β-induced death of cortical neurons (cortical neurons): protected cortical neurons against amyloid β-induced death; inhibition of all cdks tested (cdks 1, 2, 4 and 7) (cdks 1, 2, 4 and 7): potent and specific in vitro inhibition

**Q.** With `CC(=O)c1c(C)c2cnc(Nc3ccc(N4CCNCC4)cn3)nc2n(C2CCCC2)c1=O` [palbociclib] as the compound, how does the “frequency of crossing platform in probe trial” value (5×FAD mice [1]; [4]) read?
**A.** The value was “significantly increased”.

**Q.** What about the “latency to platform in probe trial” value (5×FAD mice [1]; [4]) of the same compound?
**A.** The value was “significantly improved to the level of the wild type control”.

**Q.** And the “memory and learning of 5×FAD mice” value (5×FAD mice [1]; mouse, in vivo)?
**A.** Its value is “able to improve memory and learning”.

**Q.** And the “expression levels of CDK4 and Cyclin D1” value (293T-APP cell line)?
**A.** The value was “Decreased”.

**Q.** And the “expression levels of CDK4 and Cyclin D1” value (293T-Tau cell line)?
**A.** The value was “decreased”.

**Q.** And the “side effect (liver, gallbladder and kidney images)” value [2]?
**A.** The value was “no side effect”.

**Q.** What about the “Aβ deposit in brain tissue” value (5×FAD mice [3]) of the same compound?
**A.** Its value is “relative fewer”.

**Q.** What about the “expression of Pax6” value (5×FAD mice [3]) of the same compound?
**A.** Its value is “decreased expression”.

**Q.** What about the “expression of cell cycle marker (Cyclin D1)” value (5×FAD mice [3]) of the same compound?
**A.** Its value is “increased expression”.

**Q.** What about the “expression of E2F-1” value (5×FAD mice [3]; treatment group compared to controls) of the same compound?
**A.** The value was “relative decreased expression”.
